Data set [1] concerns sensitized rats (passive cutaneous anaphylaxis). Nature of the data set: passive cutaneous anaphylaxis (PCA) in sensitized rats. The settings on record: po; rat p.o. In kind it is in vivo.
Data set [2] concerns sensitized rats (passive lung anaphylaxis). The data set is described as follows: animal or person. The settings on record: Rattus norvegicus, iv, read-out: PLA ED50. How it is done: (a) Tests in sensitized rats were performed after passive sensitization of the animals by IgE-antibodies and subsequent antigen challenge. In this manner a passive cutaneous anaphylaxis (GOOSE et al. (1969): Immunology 16, 749) (PCA) and a passive lung anaphylaxis ([…] et al. (1975): Br. J. Pharmac. 55, 57) (PLA, experimental asthma) could be provoked.

Data set [3] can be described thus: in vivo. The settings on record: po, mouse p.o.

Structures are written as SMILES. Counter-ions that a name gives are not always drawn.

Consider `Cl.NC1=NCC2c3ccccc3Cc3cc(Cl)ccc3N12` (centres unmarked) [Example 1(a), 3-amino-7-chloro-9,13b-dihydro-1H-dibenzo[c,f]-imidazo[1,5-a]azepine hydrochloride], for which the ED50 (usually the dose that gives a 50% effect, or the effect in half of the subjects) in data set [1] is 0.96 mg/kg.

Regarding `NC1=NCC2c3ccccc3Cc3ccccc3N12` (centres unmarked) [Example 1, 3-Amino-9,13b-dihydro-1H-dibenzo[c,f]imidazo[1,5-a]azepine hydrobromide], the ED50 in data set [1] stood at 6 mg/kg; in data set [2], 0.052 mg/kg.

In the case of `NC1=NCC2c3cc(Cl)ccc3Oc3ccccc3N12` (centres unmarked) [Example 1(d), 3-amino-12-chloro-1,13b-dihydro[b,f]imidazo[1,5-d][1,4]oxazepine hydrobromide], the ED50 in data set [1] came to 2.5 mg/kg.

Turning to `Br.NC1=NCC2c3ccccc3Oc3ccccc3N12` (centres unmarked) [Example 1(c), 3-amino-1,13b-dihydro-dibenzo[b,f]imidazo[1,5-d][1,4]-oxazepine hydrobromide], the ED50 in data set [1] came out at 1.1 mg/kg. Also, the LD50 (in general, the dose expected to kill half of the subjects tested) in data set [3] was determined as 340 mg/kg.

In the case of `Br.NC1=NCC2c3cc(Cl)ccc3Sc3ccccc3N12` (centres unmarked) [Example 1(l), 3-amino-12-chloro-1,13b-dihydro-dibenzo[b,f]imidazo[1,5-d][1,4]thiazepine hydrobromide], the ED50 in data set [1] was found to be 5.4 mg/kg.

With `Br.NC1=NCC2c3ccccc3Sc3ccccc3N12` (centres unmarked) [Example 1(i), 3-amino-1,13b-dihydro-dibenzo[b,f]imidazo[1,5-d][1,4]-thiazepine hydrobromide], the ED50 in data set [1] amounted to 3.8 mg/kg.

These data come from patent publication US4313931A, “Fused dibenzo imidazolo compounds, compositions and use” (Boehringer Ingelheim KG, priority 1980, dated 1982).
